Source: patent publication US9258998B2, “Methods for controlling flower development in plants” (Yale University, priority 2009, dated 2016)

Assays:
Type in all cases: in vivo
[1] = tested on: wildtype (ts1-ref/+) sibling plants; test: Jasmonic acid treatment of heterozygous wild-type sibling maize plants; conditions: 1 mM JA, three times at 48-hour intervals
Protocol: (§1) Maize plants were grown under greenhouse conditions. Two seeds were planted in 2-gallon reusable pots containing Super-Fine Germinating Mix (Fafard, Agawam, Mass., USA) or Redi-earth Professional Growing Mix (Sun Gro, Bellevue, Wash., USA). Fertilization was performed with controlled release Osmocote Plus 15-9-12 (Scotts, Marysville, Ohio, USA) following the manufacturer recommendations. Additional watering was performed with 4% ammonium iron citrate (Sigma-Aldrich) every 2 weeks to prevent chlorosis. Greenhouse average temperatures were 28° C. (day) and 21° C. (night). Supplemental lightning was provided to achieve a 16:8 hour photoperiod yearlong.
(§2) Tassels of about 1 cm were considered to be at an ideal stage to initiate chemical treatments. Since a thick leaf whorl covers the maize tassel at this time of development, only a destructive dissection of the plant permits to assess with certainty the stage of tassel development (Bonnet, 1940, J. Agricult. Res. 60:25; Bonnet, 1948, Ann. Mo. Bot. Gard. 35:269). Additionally, the sex determination phase was reached within a wide time window, between 28 and 46 days post-planting, depending on the growing conditions. Leaf number, node number or internode distance were not always reliable criteria to predict the tassel developmental stage. […]

[2] = tested on: ts1 mutant (ts1-ref/ts1-ref) plants; test: Jasmonic acid treatment of ts1 mutant maize tassels
Protocol: as §1
Tassels of about 1 cm were considered to be at an ideal stage to initiate chemical treatments. Since a thick leaf whorl covers the maize tassel at this time of development, only a destructive dissection of the plant permits to assess with certainty the stage of tassel development (Bonnet, 1940, J. Agricult. Res. 60:25; Bonnet, 1948, Ann. Mo. Bot. Gard. 35:269). Additionally, the sex determination phase was reached within a wide time window, between 28 and 46 days post-planting, depending on the growing conditions. Leaf number, node number or internode distance were not always reliable criteria to predict the tassel developmental stage.
Seedlings from a family segregating 1:1 for wild-type (ts1-ref/Ts1) and ts1 mutant (ts1-ref/ts1-ref) plants were genotyped for the Ts1 and ts1-ref alleles with a PCR-based assay. […] Jasmonic acid (JA, Sigma-Aldrich) was dissolved at a concentration of 200 mM in absolute ethanol and stored at −20° C. Prior to plant treatment, the JA stock solution was diluted to a concentration of 1 mM in deionized water. Control plants were treated with a 0.005% ethanol solution (“blank” treatment or negative control). One ml of the corresponding solution was applied into the apical leaf cavity of each plant. Treatments were performed three times at 48-hour intervals.
The developmental timing of the pistil abortion process occurs in tassel inflorescences when they are 1.0 to 3.0 cm in length (Irish & Nelson, 1993, Am. J. Bot. 80:292), which was also the stage at which ts1 expression occurred in the subtending glumes (FIGS. 6B to 6D). A 0.005% ethanol solution, with or without 1 mM JA, was applied to tassels of ˜1 cm in wildtype (ts1-ref/+) or ts1 mutant (ts1-ref/ts1-ref) sibling plants.

[3] = tested on: mutant ts2-ref/ts2-ref and ts2-ref/+ plants; test: Jasmonic acid treatment of ts2 maize plants; conditions: JA applied as for ts1 plants
Protocol: as §1, §2

[4] = 1 mM JA, three times at 48-hour intervals

## CC/C=C\C[C@H]1C(=O)CC[C@@H]1CC(=O)O [JA, (1R,2R)-3-oxo-2-(2Z)-2-pentenylcyclopentaneacetic acid]
[1]
  effect of treatment on heterozygous ts1-ref/+ sibs: nor did JA treatment affect heterozygous ts1-ref/+ sibs
[2]; 1 mM JA in 0.005% ethanol, 1 ml into apical leaf cavity, three times at 48-hour intervals, tassels of ~1 cm
  sexual phenotype of tassel (feminization; staminate spikelets): reversed feminization
[2]; [4]
  glume morphology of treated ts1 mutants: elongated, were covered with numerous trichomes, and had a ring of anthocyanin deposited at the base
  time to appearance of wildtype rescue in glumes after treatment: 3 to 4 weeks
[2]; later in floral development
  stamen emergence from treated ts1 mutant spikelets: stamens emerged
[2]; pollen used for self-pollination and test crosses
  pollen viability of staminate florets from rescued ts1/ts1 plants: produced viable pollen
[2]; some spikelets bisexual, others at base pistillate
  completeness of rescued tassel inflorescence phenotype: incomplete
[3]
  response of ts2 plants to treatment: responded in the same manner as the JA-treated ts1 mutants
